Laboratory results taken from patent publication US9421163B2, “Topical compositions comprising polyunsaturated fatty acids” (Dignity Sciences Limited, priority 2009, dated 2016).

Columns and labels:
[1] = tested on: COX-2 enzymes; assay: Immunohistochemistry assay of COX-2 enzymes in ex vivo porcine ear skin (Franz diffusion cell, diaminobenzidine staining); format: cell-based; details: substance as donor phase in Franz cell, after six hours versus 0 hours
[2] = tested on: COX-2; assay: Western Blotting of COX-2 expression in porcine skin after topical application; format: cell-based; details: topically applied, water control assigned 100%, FIG. 5
Procedure: A Western Blotting experiment was carried out to determine the effect of topically applied representative compounds of the invention DGLA and 15-HETrE on the expression of COX-2 in porcine skin. Water was used as a control.
The porcine skin membranes (as described in Example 1) were gently cleaned with de-ionised water before being homogenized (Silverson, Chesham, UK) in a RIPA lysis buffer [50 mM Tris-HCl (PH 7.4), 150 mM NaCl, 1 mM PMSF, 1 mM EDTA, 5 μg mL^−1 aprotinin, 5 μg mL^−1 leupeptin, 1% Triton X-100, 1% sodium deoxycholate, 0.1% SDS]. After 15 min incubation on ice, the lysates were clarified by centrifugation at 14000×g for 2×15 min and the supernatant stored at −80° C. for subsequent protein analysis.
Aliquots of 30 μg total protein were separated by SDS-PAGE, transferred to nitrocelullose membranes using the Trans-Blot electrophoretic Transfer Cell and briefly stained with Ponceau S to verify effective transfer. Immunoblots were incubated for 1 h in a blocking solution [tris-buffered saline (TBS)-Tween 20 containing 5% (w/v) commercial skimmed milk powder (Marvel) at room temperature. After washing, the membrane was probed overnight at 4° C. with COX-2 antibody at 1:1000, 5-LOX at 1:1000 and iNOS at 1:500 in (1:20 and 1:100 western blocking reagent and sodium azide solution respectively made up to volume with TBS tween). […]

[3] = tested on: skin; details: applied directly to the skin; Xi et al. 2000; cited from earlier work

SMILES	amount of dark stain (diaminobenzidine, COX-2 enzymes present in the skin) [1]	COX-2 expression relative to the control [2]	antiproliferative properties [3]
CCCCCC(O)/C=C/C=C\C/C=C\CCCCCCC(=O)O (stereo not drawn) [15-HETrE, 15-Hydroxy-eicosa-8Z, 11Z, 13E-trienoic acid]	the amount of dark stain has reduced	significant reduction	antiproliferative properties
CCCCC/C=C\C/C=C\C/C=C\CCCCCCC(=O)O [DGLA, Eicosa-8Z, 11Z, 14Z-trienoic acid]	the amount of dark stain has reduced	significant reduction	–
CC(C(=O)O)c1cccc(C(=O)c2ccccc2)c1 (stereo not drawn) [ketoprofen, reference compound]	the amount of dark stain has reduced	–	–
